The results in this text go back to patent publication US20100280082A1, “Metabotropic Glutamate Receptor Oxadiazole Ligands and Their Use as Potentiators” (AstraZeneca AB, priority 2007, published 2010).

The target in this series is hERG ion channel (Homo sapiens, UniProt Q12809). Description: hERG activity (process of Bridgland-Taylor et al.). Format: cell-based. The method, then: hERG activity was assessed using the process described by Bridgland-Taylor, M. H., et al, J. Pharm. Tox. Methods 54 (2006) 189-199.
Chain of hERG ion channel (Q12809 whole entry): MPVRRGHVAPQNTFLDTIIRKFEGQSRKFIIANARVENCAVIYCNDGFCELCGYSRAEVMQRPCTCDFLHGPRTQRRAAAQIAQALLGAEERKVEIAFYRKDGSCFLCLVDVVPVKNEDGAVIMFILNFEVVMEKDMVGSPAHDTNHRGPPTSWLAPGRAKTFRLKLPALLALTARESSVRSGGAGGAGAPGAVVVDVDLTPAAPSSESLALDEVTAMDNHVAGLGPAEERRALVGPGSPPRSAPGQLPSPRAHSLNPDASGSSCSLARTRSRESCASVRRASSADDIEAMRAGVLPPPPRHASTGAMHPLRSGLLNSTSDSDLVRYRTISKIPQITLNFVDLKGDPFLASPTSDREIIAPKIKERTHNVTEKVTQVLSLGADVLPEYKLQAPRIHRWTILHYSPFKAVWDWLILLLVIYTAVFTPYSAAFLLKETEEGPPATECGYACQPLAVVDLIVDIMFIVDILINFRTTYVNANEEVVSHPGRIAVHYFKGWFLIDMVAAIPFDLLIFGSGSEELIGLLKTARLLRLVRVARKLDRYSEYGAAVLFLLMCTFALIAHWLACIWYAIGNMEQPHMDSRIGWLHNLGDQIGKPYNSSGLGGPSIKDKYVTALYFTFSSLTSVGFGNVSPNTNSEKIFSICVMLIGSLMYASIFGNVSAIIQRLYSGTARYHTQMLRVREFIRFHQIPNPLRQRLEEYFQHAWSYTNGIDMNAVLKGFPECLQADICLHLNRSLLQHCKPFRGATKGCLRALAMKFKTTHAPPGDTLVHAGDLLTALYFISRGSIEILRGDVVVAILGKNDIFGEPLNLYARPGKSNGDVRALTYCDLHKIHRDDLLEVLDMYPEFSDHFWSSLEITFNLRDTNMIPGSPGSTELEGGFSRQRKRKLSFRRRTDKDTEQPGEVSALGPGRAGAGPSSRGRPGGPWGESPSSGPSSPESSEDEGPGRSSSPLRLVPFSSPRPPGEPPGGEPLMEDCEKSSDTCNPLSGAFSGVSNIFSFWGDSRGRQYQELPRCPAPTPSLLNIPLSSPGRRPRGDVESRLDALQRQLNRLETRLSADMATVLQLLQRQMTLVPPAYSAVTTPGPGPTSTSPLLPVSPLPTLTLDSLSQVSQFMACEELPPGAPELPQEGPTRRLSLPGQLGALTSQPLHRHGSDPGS
`O=C1c2c(Cl)cc(-c3noc(CN4CCNCC4)n3)cc2CN1Cc1ccc(OC(F)(F)F)cc1` [Example 1, 7-Chloro-5-(5-piperazin-1-ylmethyl-[1,2,4]oxadiazol-3-yl)-2-(4-trifluoromethoxybenzyl)-2,3-dihydroisoindol-1-one] displayed a hERG of 10 µM.

On to `O=C1c2c(Cl)cc(-c3noc(CN4CCNCC4)n3)cc2CN1Cc1ccc(Cl)cc1` [Example 2, 7-chloro-2-(4-chlorobenzyl)-5-(5-piperazin-1-ylmethyl-[1,2,4]oxadiazol-3-yl)-2,3-dihydroisoindol-1-one], for which the hERG was 14 µM.

The compound `Cc1cc(-c2noc(CN3CCNCC3)n2)cc2c1C(=O)N(Cc1ccc(OC(F)(F)F)cc1)C2` [Example 3, 7-methyl-5-(5-piperazin-1-ylmethyl-[1,2,4]oxadiazol-3-yl)-2-(4-trifluoromethoxy-benzyl)-2,3-dihydroisoindol-1-one] came in with a hERG of 13 µM.

`Cc1cc(-c2noc(CN3CCNCC3)n2)cc2c1C(=O)N(Cc1ccc(Cl)cc1)C2` [Example 4, 2-(4-chlorobenzyl)-7-methyl-5-(5-piperazin-1-ylmethyl-[1,2,4]oxadiazol-3-yl)-2,3-dihydroisoindol-1-one] yielded a hERG of 8.9 µM.

As to `Cc1cc(-c2noc(CN3C[C@@H]4C[C@H]3CN4)n2)cc2c1C(=O)N(Cc1ccc(OC(F)(F)F)cc1)C2` [Example 5, 5-[5-(2,5-diaza-bicyclo[2.2.1]hept-2-ylmethyl)-[1,2,4]oxadiazol-3-yl]-7-methyl-2-(4-trifluoromethoxybenzyl)-2,3-dihydroisoindol-1-one], the hERG amounted to 17 µM.

`Cc1cc(-c2noc(CN3CCNCC3)n2)cc2c1C(=O)N([C@@H](C)c1ccc(Cl)cc1)C2` [Example 6, 2-[(S)-1-(4-Chloro-phenyl)-ethyl]-7-methyl-5-(5-piperazin-1-ylmethyl-[1,2,4]oxadiazol-3-yl)-2,3-dihydro-isoindol-1-one]: the hERG is 14 µM.

For `Cc1cc(-c2noc(CN3C[C@@H]4C[C@H]3CN4)n2)cc2c1C(=O)N([C@@H](C)c1ccc(Cl)cc1)C2` [Example 7, 2-[(S)-1-(4-Chloro-phenyl)-ethyl]-5-{5-[(1S,4S)-1-(2,5-diaza-bicyclo[2.2.1]hept-2-yl)methyl]-[1,2,4]oxadiazol-3-yl}-7-methyl-2,3-dihydro-isoindol-1-one], the hERG came to 12 µM.

Turning to `Cc1cc(-c2noc(CN3CCNC[C@H]3C)n2)cc2c1C(=O)N(Cc1ccc(Cl)cc1)C2` [Example 8, 2-(4-chloro-benzyl)-7-methyl-5-[5-(2-methyl-piperazin-1-ylmethyl)-[1,2,4]oxadiazol-3-yl]-2,3-dihydroisoindol-1-one], the hERG amounted to 11 µM.

The compound `Cc1cc(-c2noc(CN3CCNC[C@@H]3C)n2)cc2c1C(=O)N(Cc1ccc(Cl)cc1)C2` [Example 9, 2-(4-chloro-benzyl)-7-methyl-5-[5-(2-methyl-piperazin-1-ylmethyl)-[1,2,4]oxadiazol-3-yl]-2,3-dihydroisoindol-1-one] returned a hERG of 11 µM.

For the compound `Cc1cc(-c2noc(CN3CCNC(C)C3)n2)cc2c1C(=O)N(Cc1ccc(Cl)cc1)C2` (centres unmarked) [Example 10, 2-(4-chloro-benzyl)-7-methyl-5-[5-(3-methyl-piperazin-1-ylmethyl)-[1,2,4]oxadiazol-3-yl]-2,3-dihydroisoindol-1-one], the hERG is 11 µM.

For `CC1(C)CN(Cc2nc(-c3cc(Cl)c4c(c3)CN(Cc3ccc(OC(F)(F)F)cc3)C4=O)no2)CCN1` [Example 11, 7-chloro-5-[5-(3,3-dimethyl-piperazin-1-ylmethyl)-[1,2,4]oxadiazol-3-yl]-2-(4-trifluoromethoxy-benzyl)-2,3-dihydroisoindol-1-one], the hERG worked out at 13 µM.

`Cc1cc(-c2noc(C(C)N3CCNCC3)n2)cc2c1C(=O)N(Cc1ccc(OC(F)(F)F)cc1)C2` (centres unmarked) [Example 12, 7-Methyl-5-[5-(1-piperazin-1-yl-ethyl)-[1,2,4]oxadiazol-3-yl]-2-(4-trifluoromethoxy-benzyl)-2,3-dihydro-isoindol-1-one]: the hERG stood at 17 µM.

In turn, `Cc1cc(-c2noc(C(C)N3CCNCC3)n2)cc2c1C(=O)N(Cc1ccc(Cl)cc1)C2` (centres unmarked) [Example 13, 2-(4-Chloro-benzyl)-7-methyl-5-[5-(1-piperazin-1-yl-ethyl)-[1,2,4]oxadiazol-3-yl]-2,3-dihydro-isoindol-1-one] came in with a hERG of 13 µM.

In turn, `Cc1cc(-c2noc(C(C)N3CCNCC3)n2)cc2c1C(=O)N([C@@H](C)c1ccc(Cl)cc1)C2` (stereo partly drawn) [Example 14, 2-[(S)-1-(4-Chloro-phenyl)-ethyl]-7-methyl-5-[5-(1-piperazin-1-yl-ethyl)-[1,2,4]oxadiazol-3-yl]-2,3-dihydro-isoindol-1-one] registered a hERG of 11 µM.
